Measured values as given in patent publication US20240261443A1, “COMPOUNDS AND COMPOSITIONS USEFUL AS RADIOTRACERS FOR IMAGING OF REACTIVE OXIDATIVE SPECIES” (Wake Forest University Health Sciences, priority 2019, published 2024).

What was measured:
SCC-61 and rSCC-61 cells = assay: [18F]KS1 in vitro cell uptake in HNSCC cells; format: cell-based, human
Method: ROS efficacy was evaluated in two tumor cell lines: (1)SCC-61 and rSCC-61 cells (HNSCC) (FIG. 5), and (2) PC3 (PCa) cell lines under normoxic and hypoxic conditions (FIG. 6) following previously published protocols by our group (Sai et al., Peptide-based PET imaging of the tumor restricted IL13RA2 biomarker. Oncotarget 2017, 5; Yamamoto et al., Correlation of 18F-FLT and 18F-FDG uptake on PET with Ki-67 immunohistochemistry in non-small cell lung cancer. European Journal of Nuclear Medicine and Molecular Imaging 2007, 34 (10), 1610-1616; Solingapuram Sai et al., Radiolabeling and initial biological evaluation of [18F]KBM-1 for imaging RAR-α receptors in neuroblastoma. Bioorganic & Medicinal Chemistry Letters 2017, 27 (6), 1425-1427). Several ROS blockers including fresh solution of non-radioactive compounds KS1, KS2, SOD (10 μM) in the cell media were added to the seeded tumor cells 1.0 h prior to radiotracer addition (n=6 per blocker). All the cells were then treated with [^18F]KS1 (2.0 μCi/well, UV mass=0.4 μg/mL and S.A=3100 mCi/μmol) and incubated for 60 min (n=6) at 37° C. All the cells (both with and without blockers) were washed and lysed with lysate buffer solution. Lysate samples from each well were collected for gamma counting.
Similarly, in another experiment, human PCa-PC3 cells were cultured under normoxic (˜21% O2) or hypoxic (1% O2) conditions for 48 h. Thereafter, similar to HNSCC cells (detailed above) all assay steps including blocker treatment, radiotracer addition, incubations, washings and lysis were carried out under normoxic or hypoxic conditions. All hypoxia experiments were performed in a hypoxia chamber (Biospherix X3 Xvivo system). Plates without radioactivity were used as controls. Additional aliquots were taken from each well to measure protein concentration. The counts per minute values of each well were normalized to the amount of radioactivity added to each well and was expressed as percent uptake relative to the control condition. The data were expressed as % ID/mg of protein present in each well.
We reported the basic in vitro cell uptake assay of [^18F]KS1 in PC3 and SCC-61 cell lines using KS1 and ascorbate as blockers (Solingapuram Sai et al., Initial biological evaluations of 18F-KS1, a novel ascorbate derivative to image oxidative stress in cancer. EJNMMI Research 2019, 9 (1), 43), following previously published protocols by our group (Sai, et al., Peptide-based PET imaging of the tumor restricted IL13RA2 biomarker. Oncotarget 2017, 8 (31), 50997-51007; Solingapuram Sai et al., Radiolabeling and initial biological evaluation of [(18)F]KBM-1 for imaging RAR-α receptors in neuroblastoma. Bioorganic & medicinal chemistry letters 2017, 27 (6), 1425-1427; Sattiraju et al., IL13RA2 targeted alpha particle therapy against glioblastomas. Oncotarget 2017, 8 (26), 42997-43007). Here we report complete cell uptake of [^18F]KS1 in SCC-61 and rSCC-61 cell lines of HNSCC using several ROS blocking agents including ascorbate, SOD, catalase, DHE, and non-radioactive compounds KS1 ([…]) and few ROS inducers including doxorubicin and ferritin. These agents were added in the cell media to the seeded tumor cells 1.0 h prior to radiotracer addition (n=6 per blocker). The y counts per minute values of each well were normalized to the amount of radioactivity added to each well and the protein concentration in the well and expressed as percent uptake relative to the control condition. The data were expressed as % ID/mg of protein present in each well. […]

PC3 tumors = assay: Standard biodistribution in PC3 tumor-bearing mice; format: in vivo
Method: Athymic nude mice (Taconic Farms) were housed in a pathogen-free facility of the Animal Research Program at Wake Forest School of Medicine under a 12:12-h light/dark cycle and fed ad libitum. All animal experiments were conducted under IACUC approved protocols in compliance with the guidelines for the care and use of research animals established by Wake Forest Medical School Animal Studies Committee. PC3 cells (1×10^5 cells suspended in 10 μL matrigel) were implanted in the left flank of nude mice (25-30 g) as described previously. Mice bearing subcutaneous human PCa PC3 tumors were separated into two groups for baseline and blockade studies (n=3/group) and underwent microPET imaging under ˜1% isoflurane-oxygen anesthesia (Reuter et al., Oxidative stress, inflammation, and cancer: How are they linked? Free radical biology & medicine. 2010; 49:1603-16. doi:10.1016/j.freeradbiomed; Sosa et al., Oxidative stress and cancer: An overview. Ageing Research Reviews. 2013; 12:376-90; Singh et al., Silibinin suppresses in vivo growth of human prostate carcinoma PC-3 tumor xenograft. Carcinogenesis. 2007; 28:2567-74). Mice were intravenously injected with ˜100±10 μCi of [^18F]KS1 and 45 min later were scanned for 20 min using a TriFoil microPET scanner. KS1 (15 mg/kg) was used as a blocking agent and was injected 45 min before the radiotracer injection. Standard biodistribution studies were conducted in mice bearing PCa tumors to confirm in vivo binding of [^18F]KS1. Mice were intravenously injected with [^18F]KS1 (˜100 μCi), and euthanized after 30 min and 60 min of tracer injections (3 mice/time point). Samples of tumor, blood, brain, heart, lung, liver, spleen, pancreas, kidney, muscle and bone were harvested, weighed, and gamma counted with a standard dilution of the injectate (Chu et al., Development of a PET Radiotracer for Noninvasive Imaging of the Reactive Oxygen Species, Superoxide, in vivo. Organic & biomolecular chemistry. 2014; 12:4421-31; Sai et al., Radiolabeling and initial biological evaluation of [(18)F]KBM-1 for imaging RAR-α receptors in neuroblastoma. Bioorganic & medicinal chemistry letters. 2017; 27:1425-7; Kumar et al., Radiosynthesis and in Vivo Evaluation of [11C]MPC-6827, the First Brain Penetrant Microtubule PET Ligand. Journal of Medicinal Chemistry. 2018; 61:2118-23). The percentage of the injected dose per gram of tissue (% ID/g) was calculated.

increased tumor uptake from 30 min to 60 min (PC3 tumors; 30 to 60 min post injection): ~1.7 fold
tumor: muscle (target: non-target) ratio (PC3 tumors; 30 min): 4.31
bone uptake (PC3 tumors; 30 min post injection): 1.741±0.71 % ID/g
tumor uptake (PC3 tumors; 30 min post injection): 4.23±0.531 % ID/g
tumor: muscle (target: non-target) ratio (PC3 tumors; 60 min): 8.84
bone uptake (PC3 tumors; 60 min post injection): 1.381±0.561 % ID/g
tumor uptake (PC3 tumors; 60 min post injection): 6.81±0.33 % ID/g
increase in the tumor: muscle ratio (PC3 tumors; from 30 min to 60 min): > 50%
Structure (SMILES): O=C1O/C(=C/CCl)C(O)=C1OCc1ccc(OCC[18F])cc1 [[^18F]KS1]
uptake increase with ROS inducer doxorubicin (SCC-61 and rSCC-61 cells; Example 8): ~30%
radioactive uptake in SCC-61 cells compared to rSCC-61 uptake (SCC-61 and rSCC-61 cells; Example 8, 60 min, 37° C.): ~1.5 fold
uptake blocked by nonradioactive KS1 (SCC-61 and rSCC-61 cells; Example 8, KS1 10 μM added 1.0 h prior): ~40%
uptake blocked by SOD (SCC-61 and rSCC-61 cells; Example 8, SOD 10 μM added 1.0 h prior): ~60%
radioactive uptake in SCC-61 cells compared to rSCC-61 uptake (SCC-61 and rSCC-61 cells; Example 14): ~3 fold
radioactive uptake increased by ROS-inducer Dox (SCC-61 and rSCC-61 cells; Example 14): ~20%
radioactive uptake increased by ferritin (SCC-61 and rSCC-61 cells; Example 14): ~32%
radioactive uptake inhibited by catalase (SCC-61 and rSCC-61 cells; Example 14): ~90%
uptake in SCC-61 cells blocked by nonradioactive KS1 (SCC-61 and rSCC-61 cells; Example 14, KS1 (100 PM) added 1.0 h prior): ~70%
uptake in SCC-61 cells blocked by SOD (SCC-61 and rSCC-61 cells; Example 14, added 1.0 h prior): ~65%
uptake in SCC-61 cells blocked by ascorbate (SCC-61 and rSCC-61 cells; Example 14, added 1.0 h prior): ~65%
